Holding throughout (assay type): cell-based
The test system of one assay is RSV Long strain. Briefly: RSV CPE reduction assay. The procedure: CPE reduction assays were performed as described by Sidwell and Huffman et al., Appl Microbiol. (1971) 22(5):797-801 with slight modifications. HEp-2 cells (ATCC) at a concentration of 6000 cell/well were infected with RSV Long strain (ATCC) at a multiplicity of infection (m.o.i.) of 0.01, and each of the test compounds were provided to duplicate wells at final concentrations starting from 100 μM using ⅓ stepwise dilutions. For each compound, two wells were set aside as uninfected, untreated cell controls (CC), and two wells per test compound received virus only as a control for virus replication (VC). […] At the end of the incubation, 20 μl of cell counting kit-8 reagent (CCK-8, Dojindo Molecular Technologies, Inc.) were added to each well. After 4 hour incubation, the absorbance was measured in each well according to manufacturer's instruction, and the 50% effective concentration (EC50) was calculated by using regression analysis, based on the mean O.D. at each concentration of compound.
(§1) Compounds of Formula (I) and Formula (II) are active in the assay as noted in Tables 2 and 3, where ‘A’ indicates an EC50<1 μM, ‘B’ indicates an EC50 of >1 μM and <10 μM, ‘C’ indicates an EC50>10 μM and <100 μM, and ‘D’ indicates an EC50>100 μM.

Another assay concerns RSV A2. Briefly: RSV RT-PCR based assay. How it is done:
RT-PCR based assays were performed in HEp-2 cells (ATCC: CCL-23) at a concentration of 20000 cell/well were plated in 96 well plates and incubated overnight. Each of the test compounds were ⅓ serially diluted and dosed to HEp-2 cells in duplicates. The highest final concentration for each compound was 100 uM. After 24 hour compound pre-incubation, RSV A2 (ATCC: VR-1540) at MOI of 0.1 was added. Two wells per compound were set aside as uninfected, untreated cell controls (CC), and four wells per test compound received virus only as a control for virus replication (VC). The assay was stopped 4 days after virus infection and conditioned media was removed for viral RNA isolation. The quantities of the RSV virus were measured by real-time PCR using a set of RSV specific primers and probe. The data was analyzed with Prism software with EC50 defined as drug concentration that reduced the viral load 50% from the viral control (VC).
as §1

The subject of the next assay is Influenza A/WSN/33 virus. Briefly: Influenza antiviral assay (real-time PCR). The conditions noted are these: A549 cells, 24 hour pre-incubation, 72 hours, read-out: Percent Inhibition.
Where [1] appears, read: human respiratory syncytial virus, 144 h, CPE assay, HEp-2 cells infected with RSV Long strain, m.o.i. 0.01, 6 days, CCK-8 readout, read-out: EC50.
The mark [2] stands for this setting: human respiratory syncytial virus, RT-PCR assay, HEp-2 cells, 24 hour compound pre-incubation, RSV A2 at MOI 0.1, 4 days after infection, viral load, read-out: EC50.

The values that follow come from patent publication US8877731B2, “Azido nucleosides and nucleotide analogs” (Alios Biopharma, Inc., priority 2010, dated 2014).

Where two headings read alike, the source gives them in different places. Where only a bound is given, the exact number is not on record here.

For the molecule `[N-]=[N+]=N[C@]1(CO)O[C@@H](n2ccc(N)nc2=O)[C@H](F)[C@@H]1O` [Compound 2, 4′-azido-2′-deoxy-2′-fluorocytidine], the EC50 in the assay with RSV Long strain (setting [1]) and in the assay with RSV A2 (setting [2]) was less than 1 µM throughout. The inhibition at 30 µM in the assay with Influenza A/WSN/33 virus is 99.8%.

With `[N-]=[N+]=N[C@]1(CO)O[C@@H](n2cnc3c(=O)[nH]c(N)nc32)[C@H](O)[C@@H]1O` [Compound 10, 4′-azidoguanosine], the EC50 in the assay with RSV Long strain (setting [1]) and with RSV A2 (setting [2]) was less than 1 µM in each case. The inhibition at 30 µM in the assay with Influenza A/WSN/33 virus was 83.3%.

Consider `[N-]=[N+]=N[C@]1(CO)O[C@@H](n2cnc3c(=O)[nH]c(N)nc32)[C@H](F)[C@@H]1O` [Compound 27, 4′-azido-2′-deoxy-2′-fluoroguanosine], for which the EC50 in the assay with RSV Long strain (setting [1]) and in the assay on RSV A2 (setting [2]) was less than 1 µM throughout. The inhibition at 30 µM with Influenza A/WSN/33 virus was determined as 91%.

For `[N-]=[N+]=N[C@]1(CO)O[C@@H](n2cnc3c(N)ncnc32)[C@H](F)[C@@H]1O` [Compound 28, 4′-azido-2′-deoxy-2′-fluoroadenosine], the EC50 in the assay with RSV Long strain (setting [1]) and in the assay with RSV A2 (setting [2]) was more than 100 µM in each case. Also, the inhibition at 30 µM in the assay with Influenza A/WSN/33 virus amounted to 94.6%.

As for `[N-]=[N+]=N[C@]1(CO)O[C@@H](n2cnc3c(=O)[nH]c(N)nc32)C(F)(F)[C@@H]1O` [Compound 30, 4′-azido-2′-deoxy-2′,2′-difluoroguanosine], the EC50 with RSV A2 (setting [2]) was more than 100 µM. Besides, the inhibition at 30 µM in the assay on Influenza A/WSN/33 virus turned out to be 99.9%.

Take `CC(C)OP1(=S)OC[C@@]2(N=[N+]=[N-])O[C@@H](n3ccc(N)nc3=O)[C@H](F)[C@@H]2O1` (stereo partly drawn) [Compound 46, 4′-azido-2′-deoxy-2′-fluorocytidine 3′,5′-cyclic thiophosphoric acid isopropyl ester]: the EC50 in the assay on RSV Long strain (human respiratory syncytial virus, HEp-2, 144 h) is more than 100 µM; in the assay with RSV A2 (human respiratory syncytial virus, HEp-2) it was more than 100 µM.

`[N-]=[N+]=N[C@]1(CO)O[C@@H](n2cnc3c(=O)[nH]c(N)nc32)[C@@H](O)[C@@H]1O` [Compound 47, 4′-azidoarabinoguanosine]: the EC50 in the assay with RSV Long strain (setting [1]) and with RSV A2 (setting [2]) was more than 100 µM each time.

For the molecule `COc1nc(N)nc2c1ncn2[C@@H]1O[C@@](CO)(N=[N+]=[N-])[C@@H](O)[C@H]1F` [Compound 48, 2-amino-9-(4-aido-2-deoxy-2-fluoro-1-ribofuranosyl)-6-methoxypurine], the values for the EC50 in the assay on RSV Long strain (setting [1]) and with RSV A2 (setting [2]) were 1 to 10 µM and less than 1 µM, respectively.

For `COc1nc(N)nc2c1ncn2C1O[C@@](CO)(N=[N+]=[N-])[C@@H](O)[C@H]1F` (stereo partly drawn) [Compound 49, 2-amino-9-(4-aido-2-deoxy-2-fluoro-1-ribofuranosyl)-6-methoxypurine], the EC50 is more than 100 µM in the assay on RSV Long strain (CPE assay, HEp-2 cells infected with RSV Long strain, m.o.i. 0.01, 6 days, CCK-8 readout, read-out: EC50) and more than 100 µM in the assay on RSV A2 (RT-PCR assay, HEp-2 cells, 24 hour compound pre-incubation, RSV A2 at MOI 0.1, 4 days after infection, viral load, read-out: EC50).

Turning to `C[C@@]1(n2ccc(N)nc2=O)O[C@@](CO)(N=[N+]=[N-])[C@@H](O)[C@H]1O` [Compound 50, 4′-azido-1′-methylcytidine], the EC50 in the assay with RSV Long strain (setting [1]) and in the assay with RSV A2 (setting [2]) was more than 100 µM each time. In addition, in the assay with Influenza A/WSN/33 virus, the inhibition at 30 µM turned out to be 90.9%.

Take `C[C@]1(F)[C@H](n2ccc(=O)[nH]c2=O)O[C@@](CO)(N=[N+]=[N-])[C@H]1O` [Compound 51, 4′-azido-2′-deoxy-2′-α-fluoro-2′-β-methyluridine]: the EC50 with RSV Long strain (setting [1]) and with RSV A2 (setting [2]) was more than 100 µM throughout.
